Measurements as given in patent US20240368194A1, “IRAK4 DEGRADATION AGENT, AND PREPARATION METHOD THEREFOR AND USE THEREOF” (SHANGHAI LEADINGTAC PHARMACEUTICAL CO. LTD., priority 2021, published 2024).

Each compound was assayed against IRAK4 protein in THP-1 cells (Homo sapiens (Human), UniProt Q9NWZ3) (assay: Degradation of IRAK4 in THP-1 cells, human IRAK4 AlphaLISA assay). Settings: 24 h incubation.
Sequence of IRAK4 protein in THP-1 cells (Q9NWZ3 whole entry): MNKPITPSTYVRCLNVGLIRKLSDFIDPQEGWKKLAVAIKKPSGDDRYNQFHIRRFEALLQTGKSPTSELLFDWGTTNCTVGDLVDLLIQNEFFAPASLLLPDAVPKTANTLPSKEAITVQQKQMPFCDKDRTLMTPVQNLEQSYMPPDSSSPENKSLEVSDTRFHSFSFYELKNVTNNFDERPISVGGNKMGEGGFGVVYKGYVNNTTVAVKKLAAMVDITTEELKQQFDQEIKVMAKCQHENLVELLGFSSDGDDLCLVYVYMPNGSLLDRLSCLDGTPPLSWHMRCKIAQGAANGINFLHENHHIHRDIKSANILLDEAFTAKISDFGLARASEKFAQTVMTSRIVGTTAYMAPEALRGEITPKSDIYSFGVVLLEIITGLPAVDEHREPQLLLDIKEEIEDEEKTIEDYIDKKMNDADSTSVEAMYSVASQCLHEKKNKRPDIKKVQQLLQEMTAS
Assay type: cell-based
Procedure: THP-1 cells (Stem Cell Bank, Chinese Academy of Sciences) were inoculated onto a 24-well cell culture plate at 0.95 mL/well, with a cell density of 5×10^5 cells/well. The cell plate was incubated overnight in a 37° C., 5% carbon dioxide incubator, and 50 μL of a solution of a compound in dimethyl sulfoxide was added, such that the final concentration of the compound fell within the range of 0.03-3000 nM. After another 24 h of incubation, cells were collected into 1.5 mL centrifuge tubes and centrifuged at 1000 rpm at 4° C. for 5 min. The cell pellets were washed twice with 1×DPBS. The resuspended cells were lysed with 200 μL of lysis buffer (Western and IP cell lysis buffer (Beyotime), supplemented with 1 mM phenylmethylsulfonyl fluoride and protease inhibitor cocktail (Beyotime)), left to stand on ice for 30 mini, and then centrifuged at 14,000 g at 4° C. for 10 min. The supernatant samples were assayed by Western Blot for IRAK4 protein levels.
The above cell lysates were also tested for IRAK4 degradation using a human IRAK4 AlphaLISA assay kit (PerkinElmer, AL3117C). The method is specifically as follows: 2-μL test samples of cell lysate supernatant were transferred to a white 384-well plate (PerkinElmer, 6007299), and 4 μL of 5× anti-IRAK4 receptor beads (PerkinElmer, final concentration of 10 μg/mL) was then added. The plate was incubated at 23° C. for 30 min. Then 4 μL of 5× biotin-labeled anti-IRAK4 antibody (PerkinElmer, final concentration of 1 nM) was added, and the plate was incubated at 23° C. for 60 min. Finally, 10 μL of 2′ streptavidin-labeled donor beads (final concentration of 40 μg/mL) was added to each well, and the plate was incubated in the dark at 23° C. for 30 min. After the incubation was complete, AlphaLISA signal values were measured on a microplate reader EnVision (PerkinElmer, 2105) in the AlphaScreen standard mode, and IRAK4 concentrations were calculated from these signal values. Then a non-linear curve fitting of logarithmic concentration-inhibition rate was performed using GraphPad Prism 7, and the DC50 and Dmax values of the compound were obtained.
For O=C1CCN(c2cc(C(=O)N3CCC(CCOC[C@H]4CC[C@@H](n5cc(NC(=O)c6cnn7ccc(N8C[C@H]9C[C@@H]8CO9)nc67)c(C(F)F)n5)CC4)CC3)ccc2Cl)C(=O)N1 [Example 9, 5-((1R,4R)-2-oxa-5-azabicyclo[2.2.1]heptan-5-yl)-N-(1-((1R,4R)-4-((2-(1-(4-chloro-3-(2,4-dioxotetrahydropyrimidin-1(2H)-yl)benzoyl)piperidin-4-yl)ethoxy)methyl)cyclohexyl)-3-(difluoromethyl)-1H-pyrazol-4-yl)pyrazolo[1,5-a]pyrimidine-3-carboxamide], the DC50 was 129 nM and the “Dmax (%)” value was 81.0%. For O=C1CCN(c2cc(C(=O)N3CCC4(CCN(C[C@H]5CC[C@H](n6cc(NC(=O)c7cnn8ccc(N9CC%10(COC%10)C9)nc78)c(C(F)F)n6)CC5)CC4)CC3)ccc2Cl)C(=O)N1 [Example 48, N-(1-((1R,4R)-4-((9-(4-chloro-3-(2,4-dioxotetrahydropyrimidin-1(2H)-yl)benzoyl)-3,9-diazaspiro[5.5]undecan-3-yl)methyl)cyclohexyl)-3-(difluoromethyl)-1H-pyrazol-4-yl)-5-(2-oxa-6-azaspiro[3.3]heptan-6-yl)pyrazolo[1,5-a]pyrimidine-3-carboxamide], the DC50 was 5.55 nM and the Dmax was 94.4%. CN(CCC1CCN(C(=O)c2ccc(F)c(C3CCC(=O)NC3=O)c2)CC1)C(=O)[C@H]1CC[C@H](n2cc(NC(=O)c3cnn4ccc(N5CCOCC5)nc34)c(C(F)F)n2)CC1 (stereo partly drawn) [Example 54, N-(3-(difluoromethyl)-1-((1R,4R)-4-((2-(1-(3-(2,6-dioxopyridin-3-yl)-4-fluorobenzoyl)piperidin-4-yl)ethyl)(methyl)carbamoyl)cyclohexyl)-1H-pyrazol-4-yl)-5-morpholinopyrazolo[1,5-a]pyrimidine-3-carboxamide] gave a DC50 of 8.13 nM and a Dmax of 88.2%. COc1ccc(C(=O)N2CCC3(CCC(N(C)C[C@H]4CC[C@H](n5cc(NC(=O)c6cnn7ccc(N8CCOCC8)nc67)c(C(F)F)n5)CC4)CC3)CC2)cc1N1CCC(=O)NC1=O [Example 59, N-(3-(difluoromethyl)-1-((1R,4R)-4-(((3-(3-(2,4-dioxotetrahydropyrimidin-1(2H)-yl)-4-methoxybenzoyl)-3-azaspiro[5.5]undecan-9-yl)(methyl)amino)methyl)cyclohexyl)-1H-pyrazol-4-yl)-5-morpholinopyrazolo[1,5-a]pyrimidine-3-carboxamide] showed a DC50 of 7.92 nM and a Dmax of 70.8%. CN(CCC1CCN(C(=O)c2ccc(Cl)c(N3CCC(=O)NC3=O)c2)CC1)C[C@]1(O)CC[C@@H](n2cc(NC(=O)c3cnn4ccc(N5C[C@H]6C[C@@H]5CO6)nc34)c(C(F)F)n2)CC1 [Example 65, 5-((1R,4R)-2-oxa-5-azabicyclo[2.2.1]heptan-5-yl)-N-(1-((1S,4S)-4-(((2-(1-(4-chloro-3-(2,4-dioxotetrahydropyrimidin-1(2H)-yl)benzoyl)piperidin-4-yl)ethyl)(methyl)amino)methyl)-4-hydroxycyclohexyl)-3-(difluoromethyl)-1H-pyrazol-4-yl)pyrazolo[1,5-a]pyrimidine-3-carboxamide] gave a DC50 of 14.3 nM and a Dmax of 87.2%.

What follows are compounds tested against IRAK4 kinase (Homo sapiens (Human), UniProt Q9NWZ3) (assay: IRAK4 kinase activity test (KinEASE-STK S1 HTRF kit)). Settings: 2.5 nM IRAK4 kinase, 7 μM ATP, 37° C. 120 min.
Sequence of IRAK4 kinase (Q9NWZ3 whole entry): as above
Assay type: biochemical
Procedure: Then 2.5 nM 1RAK4 kinase (Carna), 1 μM biotinylated polypeptide substrate (Cisbio) and 7 μM adenosine triphosphate (Sigma-Aldrich) were sequentially added, and the mixtures were incubated at 37° C. for 120 min. Subsequently, an anti-phosphoserine/threonine antibody (Cisbio) conjugated with a europium element compound and conjugated modified XL665 streptavidin (Cisbio) were added to the reaction systems to stop the reactions. After 1 h of incubation at room temperature, the fluorescence intensity of each well was measured at the excitation wavelength of 337 nm and the emission wavelengths of 620 nm and 665 nm with a microplate reader EnVision (PerkinElmer) in the HTRF mode, and Ratio values were calculated using the formula Ratio=(665 nm/620 nm)×[…]. The inhibition rate of the compound at each concentration was calculated by comparing the fluorescence intensity ratio with that of the control group. Then a non-linear curve fitting of logarithmic concentration-inhibition rate was performed using GraphPad Prism 7, and the IC50 value of the compound was obtained.
O=C1CCN(c2cc(C(=O)N3CCN(C[C@H]4CC[C@H](n5cc(NC(=O)c6cnn7ccc(N8C[C@H]9C[C@@H]8CO9)nc67)c(C(F)F)n5)CC4)CC3)ccc2Cl)C(=O)N1 [Example 3, 5-((1R,4R)-2-oxa-5-azabicyclo[2.2.1]heptan-5-yl)-N-(1-((1R,4R)-4-((4-(4-chloro-3-(2,4-dioxotetrahydropyrimidin-1(2H)-yl)benzoyl)piperazin-1-yl)methyl)cyclohexyl)-3-(difluoromethyl)-1H-pyrazol-4-yl)pyrazolo[1,5-a]pyrimidine-3-carboxamide] was tested, and the IC50 was 67.2 nM. For CN(CC1CCN(C(=O)c2ccc(Cl)c(N3CCC(=O)NC3=O)c2)CC1)C[C@H]1CC[C@H](n2cc(NC(=O)c3cnn4ccc(N5C[C@H]6C[C@@H]5CO6)nc34)c(C(F)F)n2)CC1 [Example 4, 5-((1R,4R)-2-oxa-5-azabicyclo[2.2.1]heptan-5-yl)-N-(1-((1R,4R)-4-((((1-(4-chloro-3-(2,4-dioxotetrahydropyrimidin-1(2H)-yl)benzoyl)piperidin-4-yl)methyl)(methyl)amino)methyl)cyclohexyl)-3-(difluoromethyl)-1H-pyrazol-4-yl)pyrazolo[1,5-a]pyrimidine-3-carboxamide], the IC50 was 37 nM. Work on O=C1CCN(c2cc(C(=O)N3CCC4(CCN(CC5CCN(c6ccc(NC(=O)c7cnn8ccc(N9C[C@H]%10C[C@@H]9CO%10)nc78)c(Cl)c6)CC5)CC4)CC3)ccc2Cl)C(=O)N1 [Example 6, 5-((1R,4R)-2-oxa-5-azabicyclo[2.2.1]heptan-5-yl)-N-(2-chloro-4-(4-((9-(4-chloro-3-(2,4-dioxotetrahydropyrimidin-1(2H)-yl)benzoyl)-3,9-diazaspiro[5.5]undecan-3-yl)methyl)piperidin-1-yl)phenyl)pyrazolo[1,5-a]pyrimidine-3-carboxamide] yielded an IC50 of 524 nM. Work on O=C1CCN(c2cc(C(=O)N3CCC(CCOC[C@H]4CC[C@@H](n5cc(NC(=O)c6cnn7ccc(N8C[C@H]9C[C@@H]8CO9)nc67)c(C(F)F)n5)CC4)CC3)ccc2Cl)C(=O)N1 [Example 9, 5-((1R,4R)-2-oxa-5-azabicyclo[2.2.1]heptan-5-yl)-N-(1-((1R,4R)-4-((2-(1-(4-chloro-3-(2,4-dioxotetrahydropyrimidin-1(2H)-yl)benzoyl)piperidin-4-yl)ethoxy)methyl)cyclohexyl)-3-(difluoromethyl)-1H-pyrazol-4-yl)pyrazolo[1,5-a]pyrimidine-3-carboxamide] yielded an IC50 of 131 nM. With O=C1CCN(c2cc(C(=O)N3CCC(C#CCN4CCC(n5cc(NC(=O)c6cnn7ccc(N8C[C@H]9C[C@@H]8CO9)nc67)c(C(F)F)n5)CC4)CC3)ccc2Cl)C(=O)N1 [Example 12, 5-((1R,4R)-2-oxa-5-azabicyclo[2.2.1]heptan-5-yl)-N-(1-(1-(3-(1-(4-chloro-3-(2,4-dioxotetrahydropyrimidin-1(2H)-yl)benzoyl)piperidin-4-yl)prop-2-yn-1-yl)piperidin-4-yl)-3-(difluoromethyl)-1H-pyrazol-4-yl)pyrazolo[1,5-a]pyrimidine-3-carboxamide] the IC50 was 270 nM. For O=C1CCN(c2cc(C(=O)N3CCC(CCCN4CCC(n5cc(NC(=O)c6cnn7ccc(N8C[C@H]9C[C@@H]8CO9)nc67)c(C(F)F)n5)CC4)CC3)ccc2Cl)C(=O)N1 [Example 14, 5-((1R,4R)-2-oxa-5-azabicyclo[2.2.1]heptan-5-yl)-N-(1-(1-(3-(1-(4-chloro-3-(2,4-dioxotetrahydropyrimidin-1(2H)-yl)benzoyl)piperidin-4-yl)propyl)piperidin-4-yl)-3-(difluoromethyl)-1H-pyrazol-4-yl)pyrazolo[1,5-a]pyrimidine-3-carboxamide], the IC50 was 124 nM. Work on O=C1CCN(c2ccc(C(=O)N3CCC4(CCC(CN5CCC(n6cc(NC(=O)c7cnn8ccc(N9CCOCC9)nc78)c(C(F)F)n6)CC5)CC4)CC3)cc2)C(=O)N1 [Example 27, N-(3-(difluoromethyl)-1-(1-((3-(4-(2,4-dioxotetrahydropyrimidin-1(2H)-yl)benzoyl)-3-azaspiro[5.5]undecan-9-yl)methyl)piperidin-4-yl)-1H-pyrazol-4-yl)-5-morpholinopyrazolo[1,5-a]pyrimidine-3-carboxamide] yielded an IC50 of 13.5 nM. For O=C1CCN(c2cc(N3CCN(CCCCN4CCC(n5cc(NC(=O)c6cnn7ccc(N8C[C@H]9C[C@@H]8CO9)nc67)c(C(F)F)n5)CC4)CC3)ccc2Cl)C(=O)N1 [Example 51, 5-((1R,4R)-2-oxa-5-azabicyclo[2.2.1]heptan-5-yl)-N-(1-(1-(4-(4-(4-chloro-3-(2,4-dioxotetrahydropyrimidin-1(2H)-yl)phenyl)piperazin-1-yl)butyl)piperidin-4-yl)-3-(difluoromethyl)-1H-pyrazol-4-yl)pyrazolo[1,5-a]pyrimidine-3-carboxamide], the IC50 was 27.1 nM. O=C1CCC(c2cc(C(=O)N3CCN(CCCC(=O)N4CCC(n5cc(NC(=O)c6cnn7ccc(N8CCOCC8)nc67)c(C(F)F)n5)CC4)CC3)ccc2F)C(=O)N1 (stereo not shown) [Example 62, N-(3-(difluoromethyl)-1-(1-(4-(4-(3-(2,6-dioxopiperidin-3-yl)-4-fluorobenzoyl)piperazin-1-yl)butanoyl)piperidin-4-yl)-1H-pyrazol-4-yl)-5-morpholinopyrazolo[1,5-a]pyrimidine-3-carboxamide] showed an IC50 of 28.9 nM.
